Assay results taken from ChEMBL document CHEMBL1275558 (Antimicrob Agents Chemother, 2008).

Tests used:
[1] = Therapeutic index, ration of TD50 for human foreskin fibroblast cell infected with Toxoplasma gondii to ID 50 for Toxoplasma gondii; assay type: cell-based; details: read-out: TI
[2] = Cytotoxicity against human foreskin fibroblast cell infected with Toxoplasma gondii; assay type: cell-based; details: read-out: TD50 (the source's name)
Toxoplasma gondii = assay: Antimicrobial activity against Toxoplasma gondii; assay type: functional; details: read-out: ID50 (the source's name)

Row | Compound | selectivity ratio [1] | CC50 [2] | IC50 (Toxoplasma gondii)
1 | O=C1Nc2ccc(F)cc2/C1=C1/Nc2ccccc2/C1=N\O | 120 | 61 µM | 0.52 µM
2 | Cc1ccc2c(c1)/C(=C1/Nc3ccccc3/C1=N\O)C(=O)N2 | – | > 500 µM | > 500 µM
3 | O=C1c2cc(F)ccc2-n2c1nc1ccccc1c2=O | 31500 | 63 µM | 0.002 µM
4 | Cc1ccc2[nH]c(O)c(C3=Nc4ccccc4C3=O)c2c1 | – | > 500 µM | > 500 µM
5 | O=C1C(c2c(O)[nH]c3ccc(S(=O)(=O)O)cc23)=Nc2ccccc21 | – | > 500 µM | > 500 µM
6 | O=C1Nc2cc(Cl)c(Br)cc2/C1=C1/Nc2ccccc2/C1=N\O | > 210 | > 500 µM | 2.4 µM
7 | O=C1c2cc(I)ccc2-n2c1nc1ccccc1c2=O | – | > 500 µM | 0.02 µM
8 | O=C1c2ccc(Cl)cc2-n2c1nc1ccccc1c2=O | > 80 | > 500 µM | 6.3 µM
9 | O=C1c2ccc(Br)cc2-n2c1nc1ccccc1c2=O | > 160 | > 500 µM | 3 µM
10 | O=C1Nc2ccccc2/C1=C1/Nc2ccccc2/C1=N\OCC(O)CO (stereo not given) | > 2 | > 500 µM | 230 µM
11 | O=C1c2cc(Br)c(Cl)cc2-n2c1nc1ccccc1c2=O | 59 | 100 µM | 1.7 µM
12 | O=C1Nc2cc(Cl)c(Br)cc2/C1=C1/Nc2ccccc2C1=O | – | > 500 µM | > 500 µM
13 | CC(=O)N1C(=O)/C(=C2\Nc3ccccc3C2=O)c2ccccc21 | > 16 | > 500 µM | 30 µM
14 | O=Nc1c(-c2c(O)[nH]c3cc(Cl)ccc23)[nH]c2ccccc12 | 110 | 20 µM | 0.18 µM
15 | O=C1C(c2c(O)[nH]c3ccc(I)cc23)=Nc2ccccc21 | 11 | 240 µM | 22 µM
16 | O=C1C(c2c(O)[nH]c3ccc(Br)cc23)=Nc2ccccc21 | > 19 | > 500 µM | 27 µM
17 | O=C1C(c2c(O)[nH]c3ccc([N+](=O)[O-])cc23)=Nc2ccccc21 | – | > 500 µM | > 500 µM

Row | Compound | selectivity ratio [1] | CC50 [2] | IC50 (Toxoplasma gondii)
18 | CC(=O)O/N=C1/C(c2c(O)[nH]c3ccccc23)=Nc2ccccc21 | 100 | 22 µM | 0.21 µM
19 | O=C1c2cc(Cl)ccc2-n2c1nc1ccccc1c2=O | 33000 | 360 µM | 0.011 µM
20 | Cc1ccc2c(c1)C(=O)c1nc3ccccc3c(=O)n1-2 | > 6100 | > 500 µM | 0.082 µM
21 | O=Nc1c(-c2c(O)[nH]c3ccc(I)cc23)[nH]c2ccccc12 | 5 | 47 µM | 9.7 µM
22 | O=C1C(c2c(O)[nH]c3ccc(Cl)cc23)=Nc2ccccc21 | > 8 | > 500 µM | 60 µM
23 | O=C1C(c2c(O)[nH]c3ccc(F)cc23)=Nc2ccccc21 | – | > 500 µM | > 500 µM
24 | O=C1C(c2c(O)[nH]c3cc(Cl)ccc23)=Nc2ccccc21 | – | > 500 µM | > 500 µM
25 | O=Nc1c(-c2c(O)[nH]c3ccc([N+](=O)[O-])cc23)[nH]c2ccccc12 | 25 | 27 µM | 1.1 µM
26 | O=C1Nc2ccc(S(=O)(=O)O)cc2/C1=C1/Nc2ccccc2/C1=N\O | – | > 500 µM | > 500 µM
27 | O=C1Nc2ccc(Cl)cc2/C1=C1/Nc2ccccc2/C1=N\O | 23 | 51 µM | 2.2 µM
28 | O=C1c2cc(Br)ccc2-n2c1nc1ccccc1c2=O | > 160000 | > 500 µM | 0.003 µM
29 | CC(=O)O/N=C1/C(=C2/C(=O)Nc3cc(Br)ccc32)Nc2ccccc21 [6-BROMOINDIRUBIN-3'-ACETOXIME] | 12 | 46 µM | 3.7 µM
30 | O=C1Nc2cc(Br)ccc2/C1=C1/Nc2ccccc2/C1=N\O [6BIO] | – | 16 µM | –
31 | O=C1Nc2ccc(Br)cc2/C1=C1/Nc2ccccc2/C1=N\O [INDIRUBIN 2] | 9 | 17 µM | 1.8 µM
32 | O=Nc1c(-c2c(O)[nH]c3ccccc23)[nH]c2ccccc12 [INDIRUBIN-3-MONOXIME] | > 139 | > 500 µM | 3.6 µM
33 | O=C1Nc2ccccc2/C1=C1/Nc2ccccc2C1=O [INDIRUBIN] | – | > 500 µM | > 500 µM
34 | O=C1c2ccccc2-n2c1nc1ccccc1c2=O [TRYPTANTHRIN] | 2000 | 62 µM | 0.031 µM
